What was measured:
[1] = biological target: T1, Pseudomonas monteilii amino acid dehydrogenase DyGDH (WP_060477601.1), original pDyGDH, SEQ ID No. 2 (Pseudomonas promysalinigenes, UniProt A0ABY6AJQ3); assay: Kinetic parameter determination, original pDyGDH; format: biochemical; conditions: pH 7.4, 35° C.
T1 sequence (A0ABY6AJQ3 1-446): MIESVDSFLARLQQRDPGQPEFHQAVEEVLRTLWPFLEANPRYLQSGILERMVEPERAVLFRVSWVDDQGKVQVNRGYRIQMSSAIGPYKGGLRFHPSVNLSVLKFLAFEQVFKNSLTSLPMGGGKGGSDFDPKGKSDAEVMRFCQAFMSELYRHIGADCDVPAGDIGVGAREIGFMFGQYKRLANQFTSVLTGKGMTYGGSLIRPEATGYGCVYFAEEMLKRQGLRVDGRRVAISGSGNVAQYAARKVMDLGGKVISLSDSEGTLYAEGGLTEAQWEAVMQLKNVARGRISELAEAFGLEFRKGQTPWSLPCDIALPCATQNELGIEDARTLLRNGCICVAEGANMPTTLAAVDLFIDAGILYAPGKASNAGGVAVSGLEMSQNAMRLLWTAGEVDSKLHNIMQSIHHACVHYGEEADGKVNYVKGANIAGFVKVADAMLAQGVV
Experimental: The gene of the amino acid dehydrogenase cloned from Pseudomonas monteilii WP_060477601.1 (the nucleotide sequence is shown in SEQ ID No. 1, and the amino acid sequence is shown in SEQ ID No. 2) was used to construct the expression vector pETDEut-dygdh, then the obtained vector was transformed into E. coli to obtain the original strain E. coli BL21(DE3)/pETDEut-dygdh. […]
(§1) The reaction system was 500 μL, the pure enzyme solution collected in Example 4 was diluted 10 times with pH 7.4, 100 mM phosphate buffer, then 100 μL of the resulting solution was sampled, added with the substrate and exogenous coenzyme NADPH, pH 7.4, 100 mM phosphate buffer was taken as a reaction medium, after reacting at 35° C. and 600 rpm for 10 min, the concentration of L-glufosinate-ammonium in the reacting solution was determined by HPLC (according to Example 4).
(§2) According to the sequential mechanism of amino acid dehydrogenase's catalytic reaction, vmax, Km^A, Km^B can be calculated by dual-reciprocal graph, the results were shown in Table 4.

[2] = biological target: Pseudomonas monteilii amino acid dehydrogenase DyGDH variant pDyGDH-F95I-A108T-R172P-R303H (F95I/A108T/R172P/R303H of SEQ ID No. 2) (Pseudomonas promysalinigenes, UniProt A0ABY6AJQ3, A108T/F95I/R172P/R303H); assay: Kinetic parameter determination, pDyGDH-F95I-A108T-R172P-R303H; format: biochemical
Experimental: The gene of the amino acid dehydrogenase cloned from Pseudomonas monteilii WP_060477601.1 (the nucleotide sequence is shown in SEQ ID No. 1, and the amino acid sequence is shown in SEQ ID No. 2) was used to construct the expression vector pETDEut-dygdh, then the obtained vector was transformed into E. coli to obtain the original strain E. coli BL21(DE3)/pETDEut-dygdh.
The mutant proteins were purified by Ni-NTA column (1.6×10 cm, Bio-Rad, the USA), and the specific operation was carried out as follows: (1) a Ni column was equilibrated with 5 column volumes of binding buffer (pH 8.0, 50 mM sodium phosphate buffer containing 0.3 M NaCl) until the baseline was steady; (2) the sample was loaded with a flow rate of 1 mL/min, the amount of the loading sample was 25-40 mg/mL calculated by the volume of the column, thereby attaching the target protein to the Ni column; (3) the column was washed with 6 column volumes of buffer A (pH 8.0, 50 mM sodium phosphate buffer containing 0.3 M NaCl and 30 mM imidazole) at a flow rate of 1 mL/min until the baseline was steady; (4) the column was washed with buffer B (pH 8.0, 50 mM sodium phosphate buffer containing 0.3 M NaCl and 500 mM imidazole) at a flow rate of 1 mL/min, the target protein was collected and dialyzed overnight in a pH 7.5, 20 mM phosphate buffer, thereby obtaining the pure enzyme; and (5) the Ni column was washed with 5 column volumes of binding buffer (pH 8.0, 50 mM sodium phosphate buffer containing 0.3 M NaCl) until the baseline was steady, and the Ni column was stored in 5 column volumes of ultrapure water containing 20% ethanol.
Kinetic parameters of the amino acid hydrogenase and its mutants were examined, 2-carbonyl-4-(hydroxymethylphosphinyl)-butyric acid was taken as substrate, the concentration was set as 2-10 mM (2, 4, 6, 8, 10 mM), the concentration of exogenous coenzyme NADPH was set as 1-5 mM (1, 2, 3, 4, 5 mM), 100 uL of pure enzyme solution was added (according to Example 4).
as §1, §2

SMILES: CP(=O)(O)CCC(=O)C(=O)O [2-carbonyl-4-(hydroxymethylphosphinyl)-butyric acid]
- kcat/Km^B (2-carbonyl-4-(hydroxymethylphosphinyl)-butyric acid) [1]: 12410 M⁻¹ s⁻¹
- kcat/Km^B (2-carbonyl-4-(hydroxymethylphosphinyl)-butyric acid) ([2]; pH 7.4, 35° C.): 363100 M⁻¹ s⁻¹
- catalytic efficiency kcat/Km^B on 2-carbonyl-4-(hydroxymethylphosphinyl)-butyric acid, times higher than that of the original enzyme ([2]; versus original pDyGDH): 29.3 times

SMILES: NC(=O)C1=CN([C@@H]2O[C@H](COP(=O)(O)OP(=O)(O)OC[C@H]3O[C@@H](n4cnc5c(N)ncnc54)[C@H](OP(=O)(O)O)[C@@H]3O)[C@@H](O)[C@H]2O)C=CC1 [NADPH]
- kcat/Km^A (NADPH) [1]: 385670 M⁻¹ s⁻¹
- kcat/Km^A (NADPH) ([2]; pH 7.4, 35° C.): 1.43823e+07 M⁻¹ s⁻¹
- catalytic efficiency on coenzyme NADPH, times higher than that of the original enzyme ([2]; versus original pDyGDH): 37.3 times

— patent publication US11408016B2, “Amino acid dehydrogenase mutant and application in synthesis of L-glufosinate-ammonium thereof” (ZHEJIANG UNIVERSITY OF TECHNOLOGY, priority 2018, dated 2022)
